Data set [1] has as its target Egl nine homolog 1 (Homo sapiens, UniProt Q9GZT9). The experiment in a line: Binding affinity to […] PHD2 (181 to 426 residues) (unknown origin) by fluorescence polarization assay. A general note: In fluorescence polarisation assays a small probe gives low polarisation when free and higher when bound to something large.
A short description of data set [2]: Metabolic stability in rat liver microsomes assessed as clearance at 1 uM preincubated for 5 mins followed by NADPH addition and measured upto 60 mins by LC-MS/MS analysis. Particulars: time < 65 min, read-out: CLH. The format is ADME, Microsome.
Data set [3] deals with Endothelial PAS domain-containing protein 1 (Homo sapiens) (UniProt Q99814). The experiment in a line: Induction of HIF-2alpha stabilization in human Hep3B cells at 20 to 50 uM by Western blotting analysis. Conditions: dose 20-50 µM. It is filed as cell-based. (In general: In western blotting, separated proteins are transferred to a membrane and probed.)
Data set [4] addresses Hypoxia-inducible factor 1-alpha (Homo sapiens) (UniProt Q16665). In words: Induction of HIF-1alpha stabilization in human Hep3B cells at 20 to 50 uM by Western blotting analysis. It is filed as cell-based. Conditions: dose 20-50 µM.
Data set [5] relates to Mus musculus. In words: Upregulation of reticulocytes in C57BL/6J mouse at 10 mg/kg, po administered once daily for 3 days. The format is functional, organism-based. Conditions: time 3.0 day.
The test system of data set [6] is Erythrocyte. In words: Upregulation of reticulocytes in C57BL/6J mouse assessed as increase in RBC at 10 to 50 mg/kg, po administered once daily for 3 days. The format is functional, organism-based. Particulars: dose 10-50 mg/kg, time 3.0 day.
Data set [7] is described as follows: Metabolic stability in rat liver microsomes assessed as half life at 1 uM preincubated for 5 mins followed by NADPH addition and measured upto 60 mins by LC-MS/MS analysis. The format is ADME, Microsome. Particulars: time < 65 min. On the technique in general: Microsomes from liver hold many membrane-bound enzymes, among them those of drug oxidation.
A short description of data set [8]: Upregulation of EPO mRNA level in human Hep3B cells assessed as fold increase at 20 uM incubated for 12 hrs by RT-qPCR analysis. The format is functional, Hep 3B2.
For data set [9], the system named is Hep 3B2. In words: Upregulation of EPO mRNA level in human Hep3B cells incubated for 12 hrs by RT-qPCR analysis. The format is functional, cell-based. Particulars: dose 5-20 µM.
Data set [10] relates to Hep 3B2. In words: Cytotoxicity against human Hep3B cells incubated for 48 hrs by CCK-8 assay. The format is toxicity, cell-based. Conditions: hep 3b2, 48 h.
The test system of data set [11] is Hep 3B2. The experiment in a line: Effect on VEGFA gene expression in human Hep3B cells at 5 to 20 uM incubated for 12 hrs by RT-qPCR analysis. It is filed as functional, cell-based. Conditions: dose 5-20 µM.

Activity calls are given as the source filed them. No cut-off for these calls is given here.

Chain of Egl nine homolog 1 (Q9GZT9 whole entry, the tested form may be a part): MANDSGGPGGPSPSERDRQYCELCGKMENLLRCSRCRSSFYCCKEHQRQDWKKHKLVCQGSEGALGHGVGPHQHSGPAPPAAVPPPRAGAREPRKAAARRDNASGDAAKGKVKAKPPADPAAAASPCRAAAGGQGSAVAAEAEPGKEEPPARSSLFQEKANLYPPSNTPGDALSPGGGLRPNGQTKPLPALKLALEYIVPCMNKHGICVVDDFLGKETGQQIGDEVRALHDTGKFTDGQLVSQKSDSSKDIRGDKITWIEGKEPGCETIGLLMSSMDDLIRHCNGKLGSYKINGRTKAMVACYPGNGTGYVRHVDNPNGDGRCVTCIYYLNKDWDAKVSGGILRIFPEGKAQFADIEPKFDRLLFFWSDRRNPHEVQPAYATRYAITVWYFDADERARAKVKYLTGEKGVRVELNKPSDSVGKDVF
Chain of Hypoxia-inducible factor 1-alpha (Homo sapiens) (Q16665 whole entry, looked up): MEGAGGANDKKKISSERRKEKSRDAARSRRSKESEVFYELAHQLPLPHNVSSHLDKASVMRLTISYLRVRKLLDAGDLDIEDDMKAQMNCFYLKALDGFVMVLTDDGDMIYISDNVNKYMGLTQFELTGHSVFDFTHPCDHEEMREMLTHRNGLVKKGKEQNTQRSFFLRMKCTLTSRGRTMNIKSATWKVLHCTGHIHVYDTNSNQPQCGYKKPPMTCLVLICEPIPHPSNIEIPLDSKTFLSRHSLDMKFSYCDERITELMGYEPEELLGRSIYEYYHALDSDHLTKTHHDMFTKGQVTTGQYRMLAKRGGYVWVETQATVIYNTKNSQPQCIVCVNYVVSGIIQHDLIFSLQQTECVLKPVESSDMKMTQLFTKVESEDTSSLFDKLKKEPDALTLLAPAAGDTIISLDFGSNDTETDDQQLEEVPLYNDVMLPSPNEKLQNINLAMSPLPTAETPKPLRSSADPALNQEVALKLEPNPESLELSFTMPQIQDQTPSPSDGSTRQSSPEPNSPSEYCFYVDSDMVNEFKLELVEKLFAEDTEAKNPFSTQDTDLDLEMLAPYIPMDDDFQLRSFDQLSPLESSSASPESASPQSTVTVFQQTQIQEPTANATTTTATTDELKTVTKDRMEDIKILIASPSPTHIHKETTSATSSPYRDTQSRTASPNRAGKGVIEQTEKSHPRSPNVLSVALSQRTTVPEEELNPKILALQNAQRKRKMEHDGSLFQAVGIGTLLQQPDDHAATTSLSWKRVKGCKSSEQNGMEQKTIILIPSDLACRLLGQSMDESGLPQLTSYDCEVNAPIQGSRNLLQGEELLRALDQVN
Chain of Endothelial PAS domain-containing protein 1 (Homo sapiens) (Q99814 whole entry, the tested form may be a part): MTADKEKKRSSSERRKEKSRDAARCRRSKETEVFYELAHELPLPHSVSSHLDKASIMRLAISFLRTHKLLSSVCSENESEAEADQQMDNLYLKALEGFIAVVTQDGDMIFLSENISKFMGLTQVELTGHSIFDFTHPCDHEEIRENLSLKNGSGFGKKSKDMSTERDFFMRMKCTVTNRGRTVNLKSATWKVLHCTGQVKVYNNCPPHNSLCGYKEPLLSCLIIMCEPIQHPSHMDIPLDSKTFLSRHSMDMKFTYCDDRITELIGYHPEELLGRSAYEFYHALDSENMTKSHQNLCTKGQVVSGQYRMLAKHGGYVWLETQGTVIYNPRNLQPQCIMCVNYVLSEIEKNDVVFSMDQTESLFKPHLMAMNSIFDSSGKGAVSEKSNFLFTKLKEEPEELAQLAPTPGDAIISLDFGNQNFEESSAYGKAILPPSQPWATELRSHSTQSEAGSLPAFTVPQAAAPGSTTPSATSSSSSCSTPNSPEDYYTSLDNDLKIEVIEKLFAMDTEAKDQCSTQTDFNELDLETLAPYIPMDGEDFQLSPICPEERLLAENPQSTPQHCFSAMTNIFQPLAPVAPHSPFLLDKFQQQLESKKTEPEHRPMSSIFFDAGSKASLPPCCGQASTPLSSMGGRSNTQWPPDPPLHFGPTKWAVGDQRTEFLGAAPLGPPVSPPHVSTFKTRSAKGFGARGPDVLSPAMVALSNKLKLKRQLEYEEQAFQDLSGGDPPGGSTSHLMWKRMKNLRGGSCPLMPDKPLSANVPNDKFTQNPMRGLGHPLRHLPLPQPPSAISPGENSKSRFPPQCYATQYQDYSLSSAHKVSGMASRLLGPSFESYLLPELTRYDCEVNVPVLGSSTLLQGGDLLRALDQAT

The IC50 is the concentration at which inhibition is half-maximal. Low readings indicate greater potency, high ones weaker potency. On to `O=C(O)CNC(=O)c1ncc(C2CCN(C(=O)c3ccccc3)CC2)cc1O`, for which the 50% inhibitory concentration (IC50) in data set [1] came to 69.7 nM. In [1], `O=C(O)CNC(=O)c1ncc(C2CCN(C(=O)CNc3ccc(C(F)(F)F)cc3)CC2)cc1O` yielded a half-maximal inhibitory concentration (IC50) of 43.4 nM. For the same compound, the microsomal CLint at 1 µM in [2] was 5.6 µL/min/mg.

Take `Cc1nc(C(=O)NCC(=O)O)c(O)c2ccc(Oc3ccccc3)cc12`: the outcome in [3], in data set [4] and in data set [5] was Active. The Activity result in data set [6] is “Dose-Dependent Effect”. Compound `O=C(O)CNC(=O)c1ncc(C2CCN(C(=O)c3cc(F)cc(F)c3)CC2)cc1O` came in with an IC50 in data set [1] of 256 nM.

Regarding `O=C(O)CNC(=O)c1ncc(C2CCN(C(=O)CNc3ccc(Cl)cc3Cl)CC2)cc1O`, the IC50 in [1] was determined as 32.5 nM. Same read-out and setting: the value for `O=C(O)CNC(=O)c1ncc(C2CCN(C(=O)CNc3ccc(OC(F)(F)F)cc3)CC2)cc1O` was 39.9 nM.

One may read the half-life as the time in which the quantity being followed falls by half. `O=C(O)CNC(=O)c1ncc(C2=CCN(S(=O)(=O)Cc3ccc(C(F)(F)F)cc3)CC2)cc1O` came in with an IC50 in data set [1] of 13.1 nM. Besides, the microsomal CLint at 1 µM in data set [2] amounted to 135 µL/min/mg. The half-life at 1 µM in [7] is 7.35 min. In data set [1], `O=C(O)CNC(=O)c1ncc(C2CCN(C(=O)CNc3ccccc3)CC2)cc1O` had an IC50 of 56.8 nM. Same read-out and setting: the value for `Cc1ccc(C(=O)N2CCC(c3cnc(C(=O)NCC(=O)O)c(O)c3)CC2)cc1` was 34.6 nM; that for `O=C(O)CNC(=O)c1ncc(C2CCN(C(=O)c3ccccc3Cl)CC2)cc1O` was 131 nM; that for `O=C(O)CNC(=O)c1ncc(C2CCN(C(=O)c3cccc(Cl)c3)CC2)cc1O` was 195 nM. In data set [1], `O=C(O)CNC(=O)c1ncc(-c2cn(CCCc3ccc(Cl)cc3)nn2)cc1O` gave an IC50 of 22.7 nM. Consider `O=C(O)CNC(=O)c1ncc(C2CCN(C(=O)c3ccc(OC(F)(F)F)cc3)CC2)cc1O`, for which the outcome in [3], in data set [4] and in data set [5] was Active. In data set [1], the 50% inhibitory concentration (IC50) was determined as 24.6 nM. In addition, in data set [8], the “fold change (FC)” value stood at 7. Besides, the Activity result in data set [6] was “Dose-Dependent Effect”; in data set [9] it was “Dose-Dependent Effect”; in [10] it was “Non-Toxic”. In addition, in data set [11], the result was inactive. In the case of `O=C(O)CNC(=O)c1ncc(C2CCN(C(=O)CNc3ccc(Cl)c(Cl)c3)CC2)cc1O`, the IC50 in [1] came out at 19.6 nM. Also, in [5], the outcome was Active.

In [1], `O=C(O)CNC(=O)c1ncc(C2CCN(C(=O)c3ccc(C(F)(F)F)cc3)CC2)cc1O` displayed an IC50 of 44.3 nM. Further, the result in [5] was Active. Further, in [2], the microsomal CLint at 1 µM was 3.7 µL/min/mg.

For the compound `O=C(O)CNC(=O)c1ncc(C#CCOc2ccc(Cl)cc2)cc1O` [DDO-3055], the IC50 in [1] is 15.6 nM. `O=C(O)CNC(=O)c1ncc(C2CCN(S(=O)(=O)Cc3ccc(C(F)(F)F)cc3)CC2)cc1O` yielded an IC50 in data set [1] of 98.9 nM. In addition, the microsomal CLint at 1 µM in data set [2] came out at 5 µL/min/mg. Consider `O=C(O)CNC(=O)c1ncc(C2CCN(C(=O)c3ccc(Cl)cc3Cl)CC2)cc1O`, for which the IC50 in data set [1] is 144 nM. Regarding `O=C(O)CNC(=O)c1ncc(-c2cccc(Cl)c2)cc1O`, in data set [5], the result was Active. Further, the Activity result in data set [6] was “Dose-Dependent Effect”. As for `O=C(O)CNC(=O)c1ncc(C2CCN(C(=O)c3ccccn3)CC2)cc1O`, the half-inhibitory concentration (IC50) in data set [1] came to 158 nM.

As for `O=C(O)CNC(=O)c1ncc(C2CCN(C(=O)c3cccs3)CC2)cc1O`, the IC50 in data set [1] came out at 57.6 nM. In the case of `O=C(O)CNC(=O)c1ncc(C2CCN(C(=O)CNc3ccc(F)cc3)CC2)cc1O`, in data set [1], the half-maximal inhibitory concentration (IC50) is 24.3 nM. Still for that read-out and setting: the value for `O=C(O)CNC(=O)c1ncc(C2CCN(C(=O)c3ccc(F)cc3)CC2)cc1O` was 67.5 nM; that for `N#Cc1ccc(C(=O)N2CCC(c3cnc(C(=O)NCC(=O)O)c(O)c3)CC2)cc1` was 76.5 nM; that for `O=C(O)CNC(=O)c1ncc(C2CCN(C(=O)c3ccc(Cl)cc3)CC2)cc1O` was 34.5 nM. The compound `COc1ccc(C(=O)N2CCC(c3cnc(C(=O)NCC(=O)O)c(O)c3)CC2)cc1` yielded an IC50 in data set [1] of 54.1 nM. Same read-out and setting: the figure for `O=C(O)CNC(=O)c1ncc(C2CCN(C(=O)c3cccc(F)c3)CC2)cc1O` is 77.1 nM. Still for that read-out and setting: the figure for `Cc1ccc(NCC(=O)N2CCC(c3cnc(C(=O)NCC(=O)O)c(O)c3)CC2)cc1` is 64.5 nM; for `O=C(O)CNC(=O)c1ncc(C2CCN(C(=O)c3ccccc3F)CC2)cc1O` it is 92.7 nM.

For the origin of these results see ChEMBL document CHEMBL5331121, “Preferred Conformation-Guided Discovery of Potent and Orally Active HIF Prolyl Hydroxylase 2 Inhibitors for the Treatment of Anemia” (J Med Chem, 2023).
